compound: CC1=CC(=C(N1C2=CC=C(C=C2)Cl)C)C(=O)CN3CCCCC3 [IU1-47] + Cc1cc(Nc2cc(N3CCN(C)CC3)nc(Sc3ccc(NC(=O)C4CC4)cc3)n2)n[nH]1 [Tozasertib] (partner 0.1 µM); test: relative viability (nuclei count vs DMSO), 5 days (fraction); higher = more cells survive; conditions: first compound 0.8 µM
How it was run: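 After 5 days of treatment, lung cancer cells in 1536-well plates were fixed and stained in a single step (final 0.05% Triton X-100, 1% formaldehyde, 1 ug/ml Hoechst) and their nuclei counted on 4× images. Treatment had been applied by pin tool the day after seeding as one drug alone or as a fixed anchor-drug dose with five library-drug doses (not always all listed) in √10 steps. Relative viability is the nuclei count of treated wells divided by that of vehicle wells, and values are medians of duplicate plates.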

Cell Line | relative viability
HCC-366 | 0.132
NCI-H1666 | 0.593
NCI-H596 | 0.864
LK-2 | 0.155
NCI-H2087 | 0.287
NCI-H2342 | 0.602
SK-MES-1 | 0.906
H3255 | 0.643
COR-L23 | 0.206
COR-L 105 | 0.379
LOU-NH91 | 0.702
ChaGo-K-1 | 0.263
NCI-H2170 | 0.762
HCC-44 | 0.968
SW 900 | 0.615
NCI-H1648 | 0.476
NCI-H2009 | 0.751
NCI-H661 | 0.355
SK-LU-1 | 0.309
NCI-H2228 | 0.246
NCI-H2023 | 0.366

same assay, conditions: first compound 2.53 µM

Cell Line | relative viability
NCI-H522 | 0.489
NCI-H1623 | 0.451
NCI-H727 | 0.58
NCI-H1650 | 0.382
NCI-H1993 | 0.602
SW 1573 | 0.184
NCI-H838 | 0.301
LCLC-103H | 0.503
NCI-H520 | 0.461
EMC-BAC-2 | 0.305
NCI-H2085 | 0.835
HCC-366 | 0.154
NCI-H1666 | 0.575
NCI-H596 | 0.887
LK-2 | 0.168
NCI-H2342 | 0.512

Cell Line | relative viability
SK-MES-1 | 0.868
H3255 | 0.416
COR-L23 | 0.207
COR-L 105 | 0.355
LOU-NH91 | 0.737
ChaGo-K-1 | 0.215
NCI-H2170 | 0.892
HCC-44 | 0.995
SW 900 | 0.439
NCI-H1648 | 0.338
NCI-H2009 | 0.77
NCI-H661 | 0.358
SK-LU-1 | 0.318
NCI-H2228 | 0.198
NCI-H2023 | 0.349

same assay, conditions: first compound 8 µM

Cell Line | relative viability
NCI-H522 | 0.519
NCI-H1623 | 0.428
NCI-H727 | 0.568
NCI-H1650 | 0.264
NCI-H1993 | 0.54
SW 1573 | 0.143
NCI-H838 | 0.248
LCLC-103H | 0.451
NCI-H520 | 0.363
NCI-H2126 | 0.737
EMC-BAC-2 | 0.271
NCI-H2085 | 0.774
HCC-366 | 0.112
NCI-H1666 | 0.595
NCI-H596 | 0.954
LK-2 | 0.166
NCI-H2087 | 0.241
NCI-H2342 | 0.594
SK-MES-1 | 0.935
H3255 | 0.752
COR-L23 | 0.18
COR-L 105 | 0.326
LOU-NH91 | 0.592
ChaGo-K-1 | 0.228
NCI-H2170 | 0.676
HCC-44 | 1.22

— the supplement of paper PMC10307832
